Where a name gives a salt, the structure may show the parent alone.
Tests used:
[1] = Calcein AM cytotoxicity assay, CEM; assay type: cell-based; conditions: human, CEM cells (T-lymphoblastic leukaemia), 3-day Calcein-AM assay, read-out: Cytotoxic activity IC50
Source text: (§1) Because toxic compounds negatively influence metabolic processes of cells, many standard cytotoxicity assays are based on measurement of metabolisation rate of various artificial substrates. Resulting product is then quantified, for example, by means of spectrometry. The assays can be easily modified for use in 96-well plates. For evaluation of cytotoxicity of the […] of this invention, a microtiter assay based on quantification of metabolisation of Calcein AM was used. The assay is widely used in drug screening programs and in chemosensitivity testing. In live cells, Calcein AM is enzymatically hydrolysed and accumulation of the resulting calcein is manifested by green fluorescence. […]
(§2) Approximately 10,000 cells in 80 μL of medium were seeded into 96-well microtitre plates. […] The fluorescence of free calcein was then quantified using a Fluoroscan Ascent fluorometer (Microsystems), and the percentage of surviving cells in each well was calculated by dividing the OD obtained from each cell with exposed cells by the mean OD obtained from control wells×100%. […]

[2] = Calcein AM cytotoxicity assay, HL60; assay type: cell-based; conditions: human, HL-60 cells (promyelocytic leukaemia); HL60, 3-day Calcein-AM assay; read-out: Cytotoxic activity IC50
Source text: as §1, §2

[3] = Calcein AM cytotoxicity assay, HELA; assay type: cell-based; conditions: human, HeLa cells (cervical carcinoma), 3-day Calcein-AM assay, read-out: Cytotoxic activity IC50
Source text: as §1, §2

[4] = Calcein AM cytotoxicity assay, HOS; assay type: cell-based, human; conditions: human, HOS cells (osteosarcoma), 3-day Calcein-AM assay, read-out: Cytotoxic activity IC50
Source text: as §1, §2

[5] = Pharmacokinetics / bioavailability upon intraduodenal administration in rats; assay type: in vivo, male Sprague-Dawley rats; conditions: rat
Description: Preparation of Dosing Solutions for In-Vivo Study: Para-topolin and para-topolin mesylate salt were stored at room temperature under desiccant and protected from light. The dosing solutions were prepared fresh from powders on the day of dosing. The dosing solution for intravenous administration (IV) was prepared at 1 mg/mL (free acid) in 50:50 DMSO: saline. The dosing solution for intraduodenal administration (ID) was prepared at 2 mg/mL in a 0.2% sodium carboxymethyl cellulose (Na CMC) aqueous solution.
Administration to Animals: The pharmacokinetics of para-topolin base and mesylate was evaluated in fasted male Sprague-Dawley rats. […]
Each blood sample was collected from the rats via a jugular vein cannula and placed into chilled polypropylene tubes containing sodium heparin as an anticoagulant. […] The total concentration of para-topolin in plasma samples were analyzed by LC-MS/MS after an overnight incubation with glucuronidase/arylsulfatase enzyme mixture. Pharmacokinetic parameters were calculated using the WinNonlin software.
Analysis of Plasma Samples: An LC-MS/MS analytical method for the determination of […] in rat plasma was developed (Novák et al., Phytochemistry, 69, 2008:2214-2224). Prior to sample analysis, a standard curve was analyzed to determine the specificity, range, and linearity of the method. […]

[6] = test system: CEM (T-lymphoblastic leukaemia); assay: Calcein AM cytotoxicity assay, CEM; assay type: cell-based; conditions: 3-day Calcein-AM assay, read-out: Cytotoxic activity IC50
Source text: as §1, §2

[7] = test system: HL-60 (promyelocytic leukaemia); assay: Calcein AM cytotoxicity assay, HL60; assay type: cell-based; conditions: HL60, 3-day Calcein-AM assay; read-out: Cytotoxic activity IC50
Source text: as §1, §2

[8] = test system: HeLa (cervical carcinoma); assay: Calcein AM cytotoxicity assay, HELA; assay type: cell-based; conditions: 3-day Calcein-AM assay, read-out: Cytotoxic activity IC50
Source text: as §1, §2

HOS (human osteosarcoma) = assay: Calcein AM cytotoxicity assay, HOS; assay type: cell-based; conditions: 3-day Calcein-AM assay, read-out: Cytotoxic activity IC50
Source text: as §1, §2

SMILES | IC50 at 72 h [1] [µM] | IC50 at 72 h [2] [µM] | IC50 at 72 h [3] [µM] | IC50 at 72 h [4] [µM] | time after ID dosing at which Cmax was observed [5] [min] | IC50 [6] [µM] | IC50 [7] [µM] | IC50 [8] [µM] | IC50 (HOS (human osteosarcoma)) [µM]
Oc1ccc(CNc2ncnc3nc[nH]c23)cc1 [para-topolin mesylate, 6-(4-hydroxybenzylamino) purine (para-topolin) mesylate (methylsulphonate)] | > 167 | > 167 | > 167 | > 167 | ≤ 15 |  |  |  | 
Oc1ccc(CNc2ncnc3nc[nH]c23)cc1 [para-topolin, 6-(4-Hydroxybenzylamino) purine] |  |  |  |  |  | > 167 | > 167 | > 167 | > 167

Source: patent publication US12378247B2, “Mesylate salt of para-topolin, compositions containing said salt and use thereof” (USTAV EXPERIMENTALNI BOTANIKY AV CR, V. V. I., priority 2020, dated 2025)
